The source of these data is US20110082130A1 (LIGAND PHARMACEUTICALS, INC., priority 2006, published 2011).

Bounds are passed on as bounds.

T1 sequence (Q9Y5N1 with tags, fused parts or gaps): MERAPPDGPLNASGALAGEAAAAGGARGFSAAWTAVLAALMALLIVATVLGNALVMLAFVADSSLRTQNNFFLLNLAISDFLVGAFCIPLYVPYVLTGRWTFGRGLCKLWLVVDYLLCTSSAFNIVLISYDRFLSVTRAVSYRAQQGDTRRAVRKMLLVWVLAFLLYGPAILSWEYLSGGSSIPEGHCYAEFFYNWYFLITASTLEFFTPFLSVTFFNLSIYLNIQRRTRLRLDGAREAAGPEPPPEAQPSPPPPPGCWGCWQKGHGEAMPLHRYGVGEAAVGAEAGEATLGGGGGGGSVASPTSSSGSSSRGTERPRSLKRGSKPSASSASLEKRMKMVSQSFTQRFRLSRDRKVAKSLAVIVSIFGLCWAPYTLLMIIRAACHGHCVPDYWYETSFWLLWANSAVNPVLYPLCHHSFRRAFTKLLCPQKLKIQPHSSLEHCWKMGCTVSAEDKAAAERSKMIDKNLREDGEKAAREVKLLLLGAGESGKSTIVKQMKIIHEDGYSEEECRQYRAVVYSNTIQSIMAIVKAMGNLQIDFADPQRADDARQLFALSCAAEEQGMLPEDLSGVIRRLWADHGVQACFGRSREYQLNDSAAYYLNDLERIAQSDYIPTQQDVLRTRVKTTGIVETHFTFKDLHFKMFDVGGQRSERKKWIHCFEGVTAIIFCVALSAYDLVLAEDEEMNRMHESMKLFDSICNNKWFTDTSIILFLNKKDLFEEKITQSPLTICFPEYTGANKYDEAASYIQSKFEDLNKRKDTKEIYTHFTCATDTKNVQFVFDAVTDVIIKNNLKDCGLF

The first test addresses T1, chimeric human H3 receptor (Homo sapiens, UniProt Q9Y5N1).
T1 construct: made in house; host or cells: Sf9 insect cells (baculovirus); P2 membrane preparation
The test can be described thus: Chimeric human H3 receptor GTP binding assay (agonist-stimulated GTP-gamma35S binding, Example 7). In kind it is biochemical. As to conditions: Table I; P2 membranes of Sf9 cells, 1 μM histamine as agonist, Ki from IC50 by Cheng-Prusoff. In short, it runs like this:
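Sf9 membranes co-expressing chimeric human H3 receptor and heterotrimeric G-protein, 35 μg/tube, in pH 7.4 Tris buffer with 10 μM GDP. Test compounds (10^−10–10^−6 M) competed against 1 μM histamine, […] GTP-gamma35S, 60 min at room temperature. Filter-bound radioactivity counted; IC50 converted to Ki by Cheng-Prusoff. Agonism/inverse agonism tested without histamine (EC50).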
(GTPγS resists hydrolysis and so accumulates on activated G proteins.)
For the compound `COc1cc2c(cc1OC)CN(CC(=O)N1CCN(C3CCCC3)CC1)CC2` [Compound 47, 2-[2-(4-cyclopentylpiperazin-1-yl)-2-oxoethyl]-6,7-dimethoxy-1,2,3,4-tetrahydroisoquinoline], the Ki was less than 1000 nM.
Consider `CC(=O)c1ccc(-c2ncc3c(n2)CCN(CC(=O)N2CCN(C4CCC4)CC2)C3)cc1` [Compound 71, 1-(4-{6-[2-(4-cyclobutylpiperazin-1-yl)-2-oxoethyl]-5,6,7,8-tetrahydropyrido[4,3-d]pyrimidin-2-yl}phenyl)ethanone], for which the Ki is less than 1000 nM.
Turning to `CC(=O)c1ccc2c(c1)CCN(CC(=O)N1CCN(C3CCC3)CC1)C2c1ccccc1Cl` (centres unmarked) [Compound 64, 1-{1-(2-chlorophenyl)-2-[2-(4-cyclobutylpiperazin-1-yl)-2-oxoethyl]-1,2,3,4-tetrahydroisoquinolin-6-yl}ethanone], the Ki was less than 1000 nM.
For `CS(=O)(=O)c1cccc(-c2ccc3c(c2)CCN(CC(=O)N2CCN(C4CCC4)CC2)C3)c1` [Compound 74, 2-[2-(4-cyclobutylpiperazin-1-yl)-2-oxoethyl]-6-[3-(methylsulfonyl)phenyl]-1,2,3,4-tetrahydroisoquinoline], the Ki was less than 1000 nM.

Still in this test, the particulars now being: Table II "Ki", symbol *; assay of Example 7.
`COc1cc(F)c(-c2ccc3c(c2)CCN(CC(=O)N2CCN(C4CCC4)CC2)C3)cc1F` [Compound 506, 2-[2-(4-cyclobutylpiperazin-1-yl)-2-oxoethyl]-6-(2,5-difluoro-4-methoxyphenyl)-1,2,3,4-tetrahydroisoquinoline]: the Ki is less than 1000 nM.
In the case of `O=C(CN1CCc2cc(-c3ccc(C(F)(F)F)cn3)ccc2C1)N1CCN(C2CCC2)CC1` [Compound 632, 2-[2-(4-cyclobutylpiperazin-1-yl)-2-oxoethyl]-6-[5-(trifluoromethyl)pyridin-2-yl]-1,2,3,4-tetrahydroisoquinoline], the Ki was less than 1000 nM.
Consider `CCOc1cccc(-c2ccc3c(c2)CCN(CC(=O)N2CCN(C4CCC4)CC2)C3)c1` [Compound 482, 2-[2-(4-cyclobutylpiperazin-1-yl)-2-oxoethyl]-6-(3-ethoxyphenyl)-1,2,3,4-tetrahydroisoquinoline], for which the Ki is less than 1000 nM.
Same read-out and setting: the value for `CCN(CC)c1ccc(-c2ccc3c(c2)CCN(CC(=O)N2CCN(C4CCC4)CC2)C3)cc1` [Compound 625, 4-{2-[2-(4-cyclobutylpiperazin-1-yl)-2-oxoethyl]-1,2,3,4-tetrahydroisoquinolin-6-yl}-N,N-diethylaniline] was less than 1000 nM; that for `C[C@H]1CN(C(=O)CN2CCc3cc(-c4cncnc4)ccc3C2)CCN1C1CCCC1` [Compound 610, 2-{2-[(3S)-4-cyclopentyl-3-methylpiperazin-1-yl]-2-oxoethyl}-6-pyrimidin-5-yl-1,2,3,4-tetrahydroisoquinoline] was less than 1000 nM.

The same test, now with this note: Table II; "*" = Ki in assay of Example 7 less than 1 micromolar.
Regarding `O=C(CN1CCc2nc(N3CCC(F)(F)CC3)ccc2C1)N1CCN(C2CCC2)CC1` [Compound 183, 6-[2-(4-cyclobutylpiperazin-1-yl)-2-oxoethyl]-2-(4,4-difluoropiperidin-1-yl)-5,6,7,8-tetrahydro-1,6-naphthyridine], the Ki is less than 1000 nM.
For `O=C(CN1CCc2cc(-n3ccc(C(F)(F)F)n3)ccc2C1)N1CCN(C2CCC2)CC1` [Compound 157, 2-[2-(4-cyclobutylpiperazin-1-yl)-2-oxoethyl]-6-[3-(trifluoromethyl)-1H-pyrazol-1-yl]-1,2,3,4-tetrahydroisoquinoline], the inhibitory constant (Ki) was less than 1000 nM.
For `CC(C)(C)c1ncc2c(n1)CCN(CC(=O)N1CCN(C3CCC3)CC1)C2` [Compound 277, 2-tert-butyl-6-[2-(4-cyclobutylpiperazin-1-yl)-2-oxoethyl]-5,6,7,8-tetrahydropyrido[4,3-d]pyrimidine], the Ki is less than 1000 nM.
For the compound `O=C(CN1CCc2cc(-c3cncnc3)nnc2C1)N1CCN(C2CCC2)CC1` [Compound 232, 7-[2-(4-cyclobutylpiperazin-1-yl)-2-oxoethyl]-3-pyrimidin-5-yl-5,6,7,8-tetrahydropyrido[3,4-c]pyridazine], the inhibitory constant (Ki) is less than 1000 nM.
As for `O=C(CN1CCc2cc(-c3ccc4nccn4c3)ccc2C1)N1CCN(C2CCC2)CC1` [Compound 231, 2-[2-(4-cyclobutylpiperazin-1-yl)-2-oxoethyl]-6-imidazo[1,2-a]pyridin-6-yl-1,2,3,4-tetrahydroisoquinoline], the Ki is less than 1000 nM.
With `Cc1c2c(nn1-c1ccc(Br)cn1)CCN(CC(=O)N1CCN(C3CCC3)CC1)C2` [Compound 273, 2-(5-bromopyridin-2-yl)-5-[2-(4-cyclobutylpiperazin-1-yl)-2-oxoethyl]-3-methyl-4,5,6,7-tetrahydro-2H-pyrazolo[4,3-c]pyridine], the Ki was less than 1000 nM.
Consider `O=C(CN1CCc2nn(-c3ccc(N4CCCC4)nn3)cc2C1)N1CCN(C2CCC2)CC1` [Compound 258, 5-[2-(4-cyclobutylpiperazin-1-yl)-2-oxoethyl]-2-(6-pyrrolidin-1-ylpyridazin-3-yl)-4,5,6,7-tetrahydro-2H-pyrazolo[4,3-c]pyridine], for which the Ki was less than 1000 nM.
As for `O=C(CN1CCc2nc(N3CCOCC3)ccc2C1)N1CCN(C2CCC2)CC1` [Compound 175, 6-[2-(4-cyclobutylpiperazin-1-yl)-2-oxoethyl]-2-morpholin-4-yl-5,6,7,8-tetrahydro-1,6-naphthyridine], the Ki was less than 1000 nM.
Consider `O=C(CN1CCc2nc(-c3cncnc3)ccc2C1)N1CCN(C2CCC2)CC1` [Compound 171, 6-[2-(4-cyclobutylpiperazin-1-yl)-2-oxoethyl]-2-pyrimidin-5-yl-5,6,7,8-tetrahydro-1,6-naphthyridine], for which the Ki was less than 1000 nM.
In the case of `CC1CN(c2ccc3c(n2)CCN(CC(=O)N2CCN(C4CCC4)CC2)C3)CC(C)O1` (centres unmarked) [Compound 182, 6-[2-(4-cyclobutylpiperazin-1-yl)-2-oxoethyl]-2-(2,6-dimethylmorpholin-4-yl)-5,6,7,8-tetrahydro-1,6-naphthyridine], the Ki is less than 1000 nM.
Regarding `O=C(NC1CCC1)c1ccc2c(n1)CCN(CC(=O)N1CCN(C3CCC3)CC1)C2` [Compound 125, N-cyclobutyl-6-[2-(4-cyclobutylpiperazin-1-yl)-2-oxoethyl]-5,6,7,8-tetrahydro-1,6-naphthyridine-2-carboxamide], the Ki was less than 1000 nM.
The same measure, in the same setting: the same measure for `O=C(CN1CCc2nn(-c3cccnn3)cc2C1)N1CCN(C2CCC2)CC1` [Compound 255, 5-[2-(4-cyclobutylpiperazin-1-yl)-2-oxoethyl]-2-pyridazin-3-yl-4,5,6,7-tetrahydro-2H-pyrazolo[4,3-c]pyridine]: less than 1000 nM.
In the case of `O=C(CN1CCc2cc(-n3cccn3)ccc2C1)N1CCN(C2CCC2)CC1` [Compound 122, 2-[2-(4-cyclobutylpiperazin-1-yl)-2-oxoethyl]-6-(1H-pyrazol-1-yl)-1,2,3,4-tetrahydroisoquinoline], the Ki is less than 1000 nM.
`O=C(CN1CCc2nc(Cl)ccc2C1)N1CCN(C2CCC2)CC1` [Compound 168, 2-chloro-6-[2-(4-cyclobutylpiperazin-1-yl)-2-oxoethyl]-5,6,7,8-tetrahydro-1,6-naphthyridine]: the Ki was less than 1000 nM.

Staying with this test, now noted: Table II; assay of Example 7.
As for `NC(=O)C1CCN(c2ncc3c(n2)CCN(CC(=O)N2CCN(C4CCC4)CC2)C3)CC1` [Compound 691, 1-{6-[2-(4-cyclobutylpiperazin-1-yl)-2-oxoethyl]-5,6,7,8-tetrahydropyrido[4,3-d]pyrimidin-2-yl}piperidine-4-carboxamide], the Ki is less than 1000 nM.

Staying with this test, now noted: assay of Example 7; "*" in Ki of Table II.
As for `COc1ccc(-c2ccc3c(c2)CCN(CC(=O)N2CCN(C(C)C)CC2)C3)cn1` [Compound 386, 2-[2-(4-isopropylpiperazin-1-yl)-2-oxoethyl]-6-(6-methoxypyridin-3-yl)-1,2,3,4-tetrahydroisoquinoline], the Ki is less than 1000 nM.
On the same count and under the same terms, the value for `CS(=O)(=O)c1cccc(-c2ccc3c(c2)CCN(CC(=O)N2CCN(C4CCCCC4)CC2)C3)c1` [Compound 395, 2-[2-(4-cyclohexylpiperazin-1-yl)-2-oxoethyl]-6-[3-(methylsulfonyl)phenyl]-1,2,3,4-tetrahydroisoquinoline] was less than 1000 nM.
Still for that read-out and setting: the same measure for `O=C(CN1CCc2nc(-c3cc(Cl)cc(Cl)c3)sc2C1)N1CCN(C2CCC2)CC1` [Compound 350, 5-[2-(4-cyclobutylpiperazin-1-yl)-2-oxoethyl]-2-(3,5-dichlorophenyl)-4,5,6,7-tetrahydro[1,3]thiazolo [5,4-c]pyridine]: less than 1000 nM.
On to `COc1ccc(-c2nc3c(s2)CN(CC(=O)N2CCN(C4CCC4)CC2)CC3)cc1C` [Compound 333, 5-[2-(4-cyclobutylpiperazin-1-yl)-2-oxoethyl]-2-(4-methoxy-3-methylphenyl)-4,5,6,7-tetrahydro[1,3]thiazolo [5,4-c]pyridine], for which the Ki is less than 1000 nM.
As for `COc1ccc(-c2ccc3c(c2)CCN(CC(=O)N2CCN(C4CCCC4)CC2)C3)cn1` [Compound 391, 2-[2-(4-cyclopentylpiperazin-1-yl)-2-oxoethyl]-6-(6-methoxypyridin-3-yl)-1,2,3,4-tetrahydroisoquinoline], the Ki is less than 1000 nM.
On the same count and under the same terms, the same measure for `O=C(CN1CCc2nc(-c3cc(F)cc(F)c3)sc2C1)N1CCN(C2CCC2)CC1` [Compound 355, 5-[2-(4-cyclobutylpiperazin-1-yl)-2-oxoethyl]-2-(3,5-difluorophenyl)-4,5,6,7-tetrahydro[1,3]thiazolo [5,4-c]pyridine]: less than 1000 nM; for `N#Cc1cccc(-c2nc3c(s2)CN(CC(=O)N2CCN(C4CCC4)CC2)CC3)c1` [Compound 367, 3-{5-[2-(4-cyclobutylpiperazin-1-yl)-2-oxoethyl]-4,5,6,7-tetrahydro[1,3]thiazolo [5,4-c]pyridin-2-yl}benzonitrile]: less than 1000 nM; for `O=C(CN1CCc2nc(-c3cccc4c3oc3ccccc34)sc2C1)N1CCN(C2CCC2)CC1` [Compound 342, 5-[2-(4-cyclobutylpiperazin-1-yl)-2-oxoethyl]-2-dibenzo[b,d]furan-4-yl-4,5,6,7-tetrahydro[1,3]thiazolo [5,4-c]pyridine]: less than 1000 nM.

As usually defined, the Ki is a dissociation constant, usually derived from enzyme kinetics or from competition with a known ligand.
